Converted amounts (≈) assume the structure as drawn. Values belong to the compound of their own block, whether it stands above or below them.
Columns and labels:
Keap1/Nrf2 = Keap1/Nrf2 (Homo sapiens, UniProt Q14145); experiment: Inhibition of Nrf2-Keap1 Kelch domain (unknown origin) protein-protein interaction in presence of biotin labeled 16mer ETGE peptide AFFAQLQLDEETGEFL; assay type: protein assay
[1] = Metabolic stability in rat liver microsomes assessed as parent compound remaining at 5 uM measured after 60 mins; assay type: ADME, Microsome; settings: read-out: Stability
[2] = Apparent permeability in human Caco-2 cells at 25 micromol/L incubated for 2 hrs by LC/MS/MS analysis; assay type: ADME, cell-based; settings: dose 25 µmol/L
[3] = Metabolic stability in human liver microsomes assessed as parent compound remaining at 5 uM measured after 60 mins; assay type: ADME, Microsome; settings: read-out: Stability
[4] = Solubility of compound in FASSIF at pH 6.5 incubated for 4 hrs by LC/MS analysis; assay type: ADME
[5] = Solubility of compound in FeSSIF at pH 5 incubated for 4 hrs by LC/MS analysis; assay type: ADME
cells = settings: Homo sapiens, HRMC, 18 h
Description: Upregulation of HO-1 expression in human HRMC cells incubated for 18 hrs by ELISA assay

[6] = biological target: KEAP1/NRF2 (Rattus norvegicus) (UniProt O54968+P57790); experiment: In vivo inhibition of Nrf2-Keap1 Kelch domain protein-protein interaction in po dosed Wistar rat kidney assessed as increase in HO-1 protein level incubated for 6 hrs by ELISA assay; assay type: functional, organism-based; settings: dose 3-30 mg/kg
[7] = Tmax in CD(SD) rat at 3 mg/kg, po measured upto 25 hrs; assay type: ADME, organism-based; settings: in vivo
[8] = Total clearance in CD(SD) rat at 1 mg/kg, iv measured upto 25 hrs; assay type: ADME, organism-based; settings: in vivo
[9] = AUC in CD(SD) rat at 3 mg/kg, po measured upto 25 hrs; assay type: ADME, organism-based; set-up: time < 25 hrs, dose 3 mg/kg, route po; settings: in vivo
[10] = MRT in CD(SD) rat at 3 mg/kg, po measured upto 25 hrs; assay type: ADME, organism-based; settings: in vivo
[11] = Volume of distribution in CD(SD) rat at 1 mg/kg, iv measured upto 25 hrs; assay type: ADME, organism-based; settings: in vivo
[12] = Oral bioavailability in CD(SD) rat at 3 mg/kg measured upto 25 hrs; assay type: ADME, organism-based; settings: in vivo
[13] = biological target: Kelch-like ECH-associated protein 1 (Homo sapiens) (UniProt Q14145); experiment: Binding affinity to Keap1 Kelch domain (unknown origin) assessed as change in entropy by isothermal titration calorimetry assay
[14] = AUC in CD(SD) rat at 1 mg/kg, iv measured upto 25 hrs; assay type: ADME, organism-based; set-up: time < 25 hrs, dose 1 mg/kg, route iv; settings: in vivo
[15] = Half life in CD(SD) rat at 1 mg/kg, iv measured upto 25 hrs; assay type: ADME, organism-based; settings: in vivo
[16] = MRT in CD(SD) rat at 1 mg/kg, iv measured upto 25 hrs; assay type: ADME, organism-based; settings: in vivo
[17] = biological target: Kelch-like ECH-associated protein 1 (Homo sapiens) (UniProt Q14145)
Description: Binding affinity to Keap1 Kelch domain (unknown origin) assessed as change in enthalpy by isothermal titration calorimetry assay

[18] = biological target: Kelch-like ECH-associated protein 1 (Homo sapiens) (UniProt Q14145); remark: listed apart in the source
Description: Binding affinity to Keap1 Kelch domain (unknown origin) assessed as change in free energy by isothermal titration calorimetry assay

Keap1/Nrf2, sequence (Q16236 whole entry, the tested form may be a part): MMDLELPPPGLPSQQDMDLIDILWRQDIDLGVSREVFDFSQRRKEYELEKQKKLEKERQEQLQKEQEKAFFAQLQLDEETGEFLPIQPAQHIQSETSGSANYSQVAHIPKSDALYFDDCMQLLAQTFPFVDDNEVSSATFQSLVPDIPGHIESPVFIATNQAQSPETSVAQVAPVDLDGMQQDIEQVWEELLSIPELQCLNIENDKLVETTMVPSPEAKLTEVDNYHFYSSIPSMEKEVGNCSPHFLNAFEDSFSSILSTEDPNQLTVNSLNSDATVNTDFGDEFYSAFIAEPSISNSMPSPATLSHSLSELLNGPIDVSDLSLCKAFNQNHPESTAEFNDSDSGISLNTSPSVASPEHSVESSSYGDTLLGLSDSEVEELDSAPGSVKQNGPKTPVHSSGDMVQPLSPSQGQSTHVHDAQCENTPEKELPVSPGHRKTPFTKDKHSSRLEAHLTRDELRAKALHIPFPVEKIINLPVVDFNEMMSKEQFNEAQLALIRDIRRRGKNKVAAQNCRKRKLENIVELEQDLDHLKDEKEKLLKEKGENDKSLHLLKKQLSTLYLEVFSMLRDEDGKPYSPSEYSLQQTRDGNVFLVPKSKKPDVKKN
Keap1/Nrf2, sequence (Q14145 whole entry, the tested form may be a part): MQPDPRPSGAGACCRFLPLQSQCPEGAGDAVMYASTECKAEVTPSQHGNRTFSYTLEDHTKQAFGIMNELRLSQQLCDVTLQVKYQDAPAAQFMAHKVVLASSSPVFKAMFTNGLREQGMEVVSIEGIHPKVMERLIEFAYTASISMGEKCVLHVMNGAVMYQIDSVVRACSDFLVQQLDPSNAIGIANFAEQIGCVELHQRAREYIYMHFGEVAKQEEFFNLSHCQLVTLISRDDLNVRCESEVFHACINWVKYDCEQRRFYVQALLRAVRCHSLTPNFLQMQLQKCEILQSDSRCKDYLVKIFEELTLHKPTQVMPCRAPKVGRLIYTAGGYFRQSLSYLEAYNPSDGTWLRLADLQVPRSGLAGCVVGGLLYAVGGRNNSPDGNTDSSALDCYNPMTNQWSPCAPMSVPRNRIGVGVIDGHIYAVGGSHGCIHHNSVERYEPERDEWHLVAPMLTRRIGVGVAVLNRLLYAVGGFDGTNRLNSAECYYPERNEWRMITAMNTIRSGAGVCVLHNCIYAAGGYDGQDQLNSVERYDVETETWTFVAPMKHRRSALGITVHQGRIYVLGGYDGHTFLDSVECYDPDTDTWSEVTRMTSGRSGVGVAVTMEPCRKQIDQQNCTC
Kelch-like ECH-associated protein 1 (Homo sapiens), sequence (Q14145 whole entry, the tested form may be a part): as above

SMILES: Cc1ccc([C@@H](NC(=O)[C@H](O)c2ccccc2)[C@@H](C)C(=O)O)cc1
IC50 (Keap1/Nrf2): > 100 µM
Papp at 2 h, 25 µM [2]: 0.27 ×10⁻⁶ cm/s

SMILES: Cc1ccc([C@@H](NC(=O)C(=O)c2ccccc2)[C@@H](C)C(=O)O)cc1
IC50 (Keap1/Nrf2): > 100 µM
Papp at 2 h, 25 µM [2]: 1.7 ×10⁻⁶ cm/s

SMILES: Cc1ccc([C@@H](NC(=O)[C@@H](F)c2ccc3c(c2)CCCC3)[C@@H](C)C(=O)O)cc1
IC50 (cells): 2 µM
IC50 (Keap1/Nrf2): 0.089 µM
inhibition [6]: Dose-Dependent Effect
Tmax [7]: 1.3 h
clearance [8]: 0.5 mL/min/kg
remaining at 1 h, 5 µM [1]: 87%
AUC at 25 h [9]: 324 µM·h
Papp at 2 h, 25 µM [2]: 33 ×10⁻⁶ cm/s
remaining at 1 h, 5 µM [3]: 70%
MRT [10]: 10 h
Vd [11]: 0.18 L/kg
bioavailability [12]: 136%
-TdeltaS [13]: -1.2 kcal/mol
AUC at 25 h [14]: 79 µM·h
half-life [15]: 4.5 h
solubility at 4 h [4]: ≥ 475 µM
solubility at 4 h [5]: 303 µM (≈ 116 µg/mL)
MRT [16]: 5.6 h

SMILES: Cc1ccc([C@@H](NC(=O)C(F)(F)c2ccccc2)[C@@H](C)C(=O)O)cc1
IC50 (cells): 66 µM
IC50 (Keap1/Nrf2): 8.9 µM
Papp at 2 h, 25 µM [2]: 15 ×10⁻⁶ cm/s

SMILES: CO[C@H](C(=O)N[C@H](c1ccc(C)cc1)[C@@H](C)C(=O)O)c1ccccc1
IC50 (Keap1/Nrf2): > 100 µM
Papp at 2 h, 25 µM [2]: 3.4 ×10⁻⁶ cm/s

SMILES: Cc1ccc([C@@H](CC(=O)O)NC(=O)Cc2ccc3c(c2)CCCC3)cc1
IC50 (Keap1/Nrf2): > 100 µM

SMILES: Cc1ccc([C@@H](NC(=O)[C@@H](F)c2ccccc2)[C@@H](C)C(=O)O)cc1
IC50 (cells): 36 µM
IC50 (Keap1/Nrf2): 3.5 µM
Papp at 2 h, 25 µM [2]: 12 ×10⁻⁶ cm/s

SMILES: Cc1ccc([C@@H](NC(=O)[C@@H](O)c2ccccc2)[C@@H](C)C(=O)O)cc1
IC50 (Keap1/Nrf2): 96 µM
Papp at 2 h, 25 µM [2]: 0.26 ×10⁻⁶ cm/s

SMILES: Cc1ccc([C@@H](NC(=O)Cc2ccc3c(c2)CCCC3)[C@@H](C)C(=O)O)cc1
IC50 (cells): 56 µM
IC50 (Keap1/Nrf2): 2.8 µM
deltaH [17]: -4.3 kcal/mol
Papp at 2 h, 25 µM [2]: 25 ×10⁻⁶ cm/s
-TdeltaS [13]: -3.7 kcal/mol
deltaG [18]: -8 kcal/mol

SMILES: CC[C@H](C(=O)O)[C@H](NC(=O)Cc1ccc2c(c1)CCCC2)c1ccc(C)cc1
IC50 (Keap1/Nrf2): 99 µM

Continued by falling IC50 (Keap1/Nrf2), values first:

IC50 (Keap1/Nrf2): 90 µM
Papp at 2 h, 25 µM [2]: 6.6 ×10⁻⁶ cm/s
SMILES: Cc1ccc([C@@H](NC(=O)[C@H](F)c2ccccc2)[C@@H](C)C(=O)O)cc1

IC50 (Keap1/Nrf2): 83 µM
SMILES: CO[C@@H](C(=O)N[C@H](c1ccc(C)cc1)[C@@H](C)C(=O)O)c1ccccc1

IC50 (Keap1/Nrf2): 67 µM
Papp at 2 h, 25 µM [2]: 2.3 ×10⁻⁶ cm/s
SMILES: Cc1ccc([C@@H](NC(=O)Cc2ccccc2)[C@@H](C)C(=O)O)cc1

IC50 (Keap1/Nrf2): 55 µM
SMILES: CC[C@@H](C(=O)O)[C@H](NC(=O)Cc1ccc2c(c1)CCCC2)c1ccc(C)cc1

IC50 (Keap1/Nrf2): 54 µM
SMILES: Cc1ccc(C(NC(=O)Cc2ccc3c(c2)CCCC3)C2(C(=O)O)CC2)cc1 (stereo not given)

IC50 (Keap1/Nrf2): 51 µM
SMILES: Cc1ccc([C@@H](NC(=O)Cc2ccc3c(c2)CCCC3)[C@H](C)C(=O)O)cc1

IC50 (Keap1/Nrf2): 40 µM
remaining at 1 h, 5 µM [1]: 95%
Papp at 2 h, 25 µM [2]: 17 ×10⁻⁶ cm/s
remaining at 1 h, 5 µM [3]: 85%
solubility at 4 h [4]: 432 µM (≈ 152 µg/mL)
solubility at 4 h [5]: 469 µM (≈ 165 µg/mL)
SMILES: Cc1ccc(C(CC(=O)O)NC(=O)Cc2ccc3c(c2)CCCC3)cc1 (stereo not given)

IC50 (Keap1/Nrf2): 39 µM
deltaH [17]: -4.5 kcal/mol
-TdeltaS [13]: -2.2 kcal/mol
deltaG [18]: -6.7 kcal/mol
SMILES: Cc1ccc([C@H](CC(=O)O)NC(=O)Cc2ccc3c(c2)CCCC3)cc1

IC50 (Keap1/Nrf2): 37 µM
remaining at 1 h, 5 µM [1]: 0%
Papp at 2 h, 25 µM [2]: 13 ×10⁻⁶ cm/s
remaining at 1 h, 5 µM [3]: 0%
solubility at 4 h [4]: ≥ 475 µM
solubility at 4 h [5]: 424 µM (≈ 172 µg/mL)
SMILES: COc1ccc(S(=O)(=O)Nc2ccc(N3CCCCCC3)cc2C(=O)O)cc1

IC50 (Keap1/Nrf2): 17 µM
SMILES: Cc1ccc(C(NC(=O)Cc2ccc3c(c2)CCCC3)C(C)(C)C(=O)O)cc1 (stereo not given)

Source: ChEMBL document CHEMBL5257130, “Methyl and Fluorine Effects in Novel Orally Bioavailable Keap1-Nrf2 PPI Inhibitor” (ACS Med Chem Lett, 2023)
